Experiment [1] addresses T1, Endothelin receptor type B (Homo sapiens, UniProt P24530).
T1 sequence (P24530 whole entry): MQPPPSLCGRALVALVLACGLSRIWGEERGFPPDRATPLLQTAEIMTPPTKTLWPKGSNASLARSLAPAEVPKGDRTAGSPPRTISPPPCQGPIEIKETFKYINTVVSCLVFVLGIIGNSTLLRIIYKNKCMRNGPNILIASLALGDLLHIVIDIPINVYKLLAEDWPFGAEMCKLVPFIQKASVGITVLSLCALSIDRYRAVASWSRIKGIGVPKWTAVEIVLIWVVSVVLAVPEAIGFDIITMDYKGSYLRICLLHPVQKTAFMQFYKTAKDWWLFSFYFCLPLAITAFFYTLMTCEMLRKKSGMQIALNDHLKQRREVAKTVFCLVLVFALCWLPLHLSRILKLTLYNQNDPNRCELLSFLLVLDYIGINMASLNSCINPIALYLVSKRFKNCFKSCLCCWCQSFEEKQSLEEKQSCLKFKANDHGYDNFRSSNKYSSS
Nature of the experiment: Inhibition of human Endothelin B receptor using I-ET-1 as radioligand in a competitive radioligand assay.

Experiment [2] concerns the target T2, Endothelin-1 receptor (Homo sapiens, UniProt P25101).
T2 sequence (P25101 whole entry): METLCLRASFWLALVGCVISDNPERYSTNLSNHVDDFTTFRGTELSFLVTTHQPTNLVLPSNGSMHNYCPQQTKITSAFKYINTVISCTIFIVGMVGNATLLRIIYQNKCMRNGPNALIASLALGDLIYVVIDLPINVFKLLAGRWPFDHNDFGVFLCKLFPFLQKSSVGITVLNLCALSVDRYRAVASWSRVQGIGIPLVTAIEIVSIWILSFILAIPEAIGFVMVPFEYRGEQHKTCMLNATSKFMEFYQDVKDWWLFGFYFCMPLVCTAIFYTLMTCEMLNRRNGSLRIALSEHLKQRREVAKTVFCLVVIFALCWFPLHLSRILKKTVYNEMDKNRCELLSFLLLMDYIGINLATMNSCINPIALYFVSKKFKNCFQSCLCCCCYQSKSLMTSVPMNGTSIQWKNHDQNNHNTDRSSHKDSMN
Nature of the experiment: Inhibitory of human Endothelin A receptor by using I-ET-1 as radioligand in a competitive radioligand assay.

The target of experiment [3] is T1, Endothelin receptor type B. Nature of the experiment: Tested for the inhibitory activity of cloned human ETB receptor by using I-ET-1 as radioligand in a competitive radioligand assay.
In experiment [4] the target is T2, Endothelin-1 receptor. Description: Tested for the inhibitory activity of cloned human ETA receptor by using I-ET-1 as radioligand in a competitive radioligand assay.

One may read the IC50 as the concentration that inhibits the measured activity by half. A low value points to greater potency. With `Cc1cc(C)c(CCc2sccc2S(=O)(=O)Nc2onc(C)c2Br)c(C)c1`, the results for the IC50 (in experiment [1]; on Endothelin-1 receptor [2]) were 2.09 µM and 0.046 µM, respectively.

In the case of `Cc1cc(C)c(/C=C/c2ccsc2S(=O)(=O)Nc2onc(C)c2Br)c(C)c1`, the IC50 in experiment [1] amounted to 1.72 µM; at Endothelin-1 receptor [2], 0.053 µM.

Turning to `Cc1ccc(/C=C/c2sccc2S(=O)(=O)Nc2onc(C)c2Br)c(C)c1`, the IC50 worked out at 2.97 µM in experiment [1] and 0.166 µM on Endothelin-1 receptor [2].

In the case of `Cc1ccc(CCc2ccsc2S(=O)(=O)Nc2onc(C)c2Br)c(C)c1`, at Endothelin-1 receptor [2], the IC50 was found to be 0.102 µM.

For `Cc1cc(C)c(/C=C/c2sccc2S(=O)(=O)Nc2onc(C)c2Br)c(C)c1`, the IC50 in experiment [1] turned out to be 2 µM; on Endothelin-1 receptor [2], 0.044 µM.

For `Cc1cc(C)c(CCc2ccsc2S(=O)(=O)Nc2onc(C)c2Br)c(C)c1`, the IC50 in experiment [1] was found to be 1.39 µM; on Endothelin-1 receptor [2], 0.058 µM.

`Cc1noc(NS(=O)(=O)c2ccsc2CCc2ccc3c(c2)OCO3)c1Br`: the IC50 stood at 9.24 µM in experiment [1] and 0.205 µM on Endothelin-1 receptor [2].

In experiment [1], `Cc1ccc(CCc2sccc2S(=O)(=O)Nc2onc(C)c2Br)cc1` had an IC50 of 11.7 µM.

Regarding `Cc1noc(NS(=O)(=O)c2sccc2/C=C/c2ccc3c(c2)OCO3)c1Br`, the results for the half-maximal inhibitory concentration (IC50) (in experiment [1]; on Endothelin-1 receptor [2]) were 9.95 µM and 0.218 µM, respectively.

Turning to `Cc1ccc(/C=C/c2sccc2S(=O)(=O)Nc2onc(C)c2Br)cc1`, the IC50 in experiment [1] was 4.13 µM; at Endothelin-1 receptor [2] it was 0.231 µM.

As to `Cc1noc(NS(=O)(=O)c2sccc2/C=C/c2cc3c(cc2COC2CCOCC2)OCO3)c1Br`, the results for the IC50 (in experiment [1]; on Endothelin-1 receptor [2]) were 4.13 µM and 0.073 µM, respectively.

For the molecule `Cc1cc2c(cc1/C=C/c1ccsc1S(=O)(=O)Nc1onc(C)c1Br)OCO2`, the half-maximal inhibitory concentration (IC50) came to 5.37 µM in experiment [3] and 0.072 µM on Endothelin-1 receptor [4].

In experiment [1], `Cc1ccc(/C=C/c2ccsc2S(=O)(=O)Nc2onc(C)c2Br)cc1` showed an IC50 of 6.63 µM.

`Cc1noc(NS(=O)(=O)c2sccc2CCc2ccc3c(c2)OCO3)c1Br`: the IC50 is 17.9 µM in experiment [1] and 0.237 µM at Endothelin-1 receptor [2].

Molecule `Cc1cc(C)c(NC(=O)c2sccc2S(=O)(=O)Nc2onc(C)c2Cl)c(C)c1` registered an IC50 on Endothelin-1 receptor [2] of 0.63 µM.

Consider `Cc1cc2c(cc1CCc1ccsc1S(=O)(=O)Nc1onc(C)c1Br)OCO2`, for which the half-inhibitory concentration (IC50) in experiment [1] turned out to be 12.4 µM; at Endothelin-1 receptor [2], 0.091 µM.

`Cc1noc(NS(=O)(=O)c2sccc2/C=C/c2cc3c(cc2CO)OCO3)c1Br`: the IC50 in experiment [1] came out at 3.24 µM; at Endothelin-1 receptor [2] it was 0.079 µM.

As to `Cc1noc(NS(=O)(=O)c2ccsc2/C=C/c2ccc3c(c2)OCO3)c1Br`, the IC50 in experiment [1] came to 5.25 µM; at Endothelin-1 receptor [2] it was 0.141 µM.

Regarding `Cc1cc2c(cc1CCc1sccc1S(=O)(=O)Nc1onc(C)c1Br)OCO2`, the results for the IC50 (in experiment [1]; on Endothelin-1 receptor [2]) were 8.9 µM and 0.062 µM, respectively.

On to `Cc1cc2c(cc1/C=C/c1sccc1S(=O)(=O)Nc1onc(C)c1Br)OCO2`, for which the results for the IC50 (in experiment [1]; on Endothelin-1 receptor [2]) were 3.28 µM and 0.081 µM, respectively.

Consider `Cc1ccc(/C=C/c2ccsc2S(=O)(=O)Nc2onc(C)c2Br)c(C)c1`, for which the half-inhibitory concentration (IC50) in experiment [1] came to 2.97 µM; at Endothelin-1 receptor [2] it was 0.18 µM.

Values taken from ChEMBL document CHEMBL1129901, “Amide bond surrogates: A study in thiophenesulfonamide based endothelin receptor antagonists” (Bioorg Med Chem Lett, 1997).
